Assay results: patent US20210315921A1, “Compounds and Methods for Modifying iAge” (Edifice Health, Inc,, priority 2020, published 2021)

Legend:
estrogen levels = settings: while raising testosterone levels; cited from earlier work
Mouse thoracic aortas = experiment: Acetylcholine relaxation of mouse thoracic aortic rings after exposure to MIG (wire myograph); settings: mouse thoracic aortic sections, precontracted with U46619, increasing concentrations of recombinant mouse MIG
Experimental: Mouse thoracic aortas were carefully dissected, and vessels were cut into small rings and mounted on an isometric wire myograph chambers (Danish Myo Technology) and subjected to a normalization protocol. Following normalization, the vessels were incubated with either PBS or different concentrations of recombinant mouse MIG (R&D systems, catalog number 492-MM). A concentration-dependent contraction curve was created by accumulative application of the prostaglandin agonist U46619. Subsequently, concentration-dependent relaxation curves of Acetylcholine were conducted on these vessels and percent relaxation calculated for each dose.

Row | Molecule | reduction of estrogen levels (estrogen levels) [%] | effect on vasorelaxation to Acetylcholine (Mouse thoracic aortas)
1 | N#Cc1ccc(C(c2ccc(C#N)cc2)n2cncn2)cc1 [Letrozole] | 98 | 
2 | MIG: recombinant mouse MIG (R&D systems, catalog number 492-MM), monokine induced by gamma interferon (protein, UniProt P18340 22-126, looked up) C-X-C motif chemokine 9: TLVIRNARCSCISTSRGTIHYKSLKDLKQFAPSPNCNKTEIIATLKNGDQTCLDPDSANVKKLMKEWEKKISQKKKQKRGKKHQKNMKNRKPKTPQSRRRSRKTT |  | dose-dependent effect on vasorelaxation
